Test results as given in patent US20160273042A1, “GENETIC MARKERS OF ANTIPSYCHOTIC RESPONSE” (SUREGENE, LLC, priority 2013, published 2016).
“And” between values parts separate entries of the source, which are not always exact repeats. Identical values can stand only once. “Also recorded” adds a separate entry of the source.

Assays:
[1] = system: patients of the CATIE study (schizophrenia); assay: CATIE trial: change in PANSS score (delta PANSS, LOCF) for subjects stratified by GARP genetic signature status; type: in vivo, human; conditions: for Delta PANSS, Mean, GARP-1 negative: GARP-1 negative subjects; for Delta PANSS, Mean, GARP-1 negative / Delta PANSS, Mean, GARP-1 positive / Delta PANSS, Mean, GARP-2 negative / Delta PANSS, Mean, GARP-3 negative / Delta PANSS, Mean, GARP-3 positive / Delta PANSS, Mean, GARP-4 negative / Delta PANSS, Mean, GARP-4 positive / Delta PANSS, Mean, GARP-2 positive: LOCF, CATIE Phases 1-2; for Delta PANSS, Mean, GARP-1 positive / response in GARP-1 positive subjects, in words: GARP-1 positive subjects; for Delta PANSS, Mean, GARP-2 negative: GARP-2 negative subjects; for Delta PANSS, Mean, GARP-3 negative: GARP-3 negative subjects; for Delta PANSS, Mean, GARP-3 positive / response in GARP-3 positive subjects, in words: GARP-3 positive subjects; for Delta PANSS, Mean, GARP-4 negative: GARP-4 negative subjects; for Delta PANSS, Mean, GARP-4 positive: GARP-4 positive subjects; for Relative efficacy (positive), GARP-1: GARP-1 positive versus negative subjects; for Relative efficacy (positive), GARP-1 / Relative efficacy (positive), GARP-2 / Relative efficacy (positive), GARP-3 / Relative efficacy (positive), GARP-4: t-test; for Relative efficacy (positive), GARP-2: GARP-2 positive versus negative subjects; for Relative efficacy (positive), GARP-3: GARP-3 positive versus negative subjects; for Relative efficacy (positive), GARP-4: GARP-4 positive versus negative subjects; for response in GARP-1 positive subjects, in words: compared with GARP-1 negative subjects or with other drugs; for response in GARP-2 positive subjects, in words: compared with GARP-2 negative subjects or with other drugs; for response in GARP-2 positive subjects, in words / Delta PANSS, Mean, GARP-2 positive: GARP-2 positive subjects; for response in GARP-3 positive subjects, in words: compared with GARP-3 negative subjects or with other drugs
Protocol: The CATIE study, a large federally funded clinical trial designed to assess the efficacy of antipsychotics in a real world setting, is a valuable resource for determining the role of genes in baseline psychopathology and drug response (Lieberman et al., 2005; Stroup et al., 2003). […] Additionally, whole genome SNP genotyping was performed for roughly half of the trial participants (Sullivan et al., 2008).
Genotype and phenotype data for the CATIE trial were recently made available to qualified researchers through the NIMH Center for Collaborative Genetic Studies on Mental Disorders. The sample consisted of a total of 738 patients. Further details on the patient population are described in the study by Sullivan and coworkers (Sullivan et al., 2008). The CATIE SNP genotype data evaluated included a total of 492,900 SNPs located throughout the genome.
The design of the CATIE study has been described in detail by others (Lieberman et al., 2005; Stroup et al., 2003). […] Subjects that failed Phase 1 treatment with the typical antipsychotic perphenazine were treated differently than those subjects that failed phase I treatment with an atypical antipsychotic. Instead of entering into Phase II of the trial, subjects who switched from perphenazine entered Phase IB. […] Subjects who failed Phase IB then entered Phase II.
A total of 738 subjects consented to provide DNA for genetic study. […] Only retrospective genetic analyses, judged to be exempt from human studies requirements by an IRB, were conducted in the current study. For the genetic analyses presented herein, the inventors combined and evaluated drug response data for Phase IA, Phase IB, and Phase II of the CATIE study. All tested patients were studied using well established clinical endpoints comparing baseline, intermediate, and last observation carried forward (LOCF) for the PANSS scores using CATIE data. LOCF analysis is a commonly used clinical endpoint for clinical trials for neuropsychiatric drugs, with particular changes in PANSS scores being used to indicate clinically significant response (Leucht et al., 2009).
Using the clinical data from the CATIE trial, the inventors derived several different metrics used for quantifying response in clinical trials of antipsychotic medications. The most commonly used psychometric instrument is the Positive and Negative Syndrome Scale (PANSS), a 30-item semi-quantitative instrument scored by clinical professionals (Kay et al., 1987). The greater the decrease in PANSS score, the better the clinical response. The most direct measure of clinical response is absolute change in PANSS score (delta PANSS). In addition to absolute change, the improvement is often reported as a percentage change from baseline PANSS score.
As mentioned previously, the mean change in PANSS at LOCF provides an important measure of efficacy in patients undergoing antipsychotic treatments. Indeed, many pivotal trials in the psychosis field used absolute and/or percentage change in PANSS Score as the primary endpoint (Leucht et al., 2009). […] Therefore, the inventors determined the impact of segmentation by GARP genetic signature status on the quantitative measure of clinical improvement—delta PANSS (for LOCF).
Each table lists the six drugs used during the first two phases of the CATIE trial.

[2] = hierarchy high / medium / low risk; cited from earlier work
[3] = system: psychotic symptoms (PANSS); conditions: difference in mean response drug minus placebo arm, divided by standard deviation; negative = greater reduction in PANSS; cited from earlier work
[4] = system: psychotic symptoms (PANSS); conditions: versus first generation antipsychotics; cited from earlier work

Row | SMILES | Delta PANSS, Mean, GARP-1 negative [1] | Delta PANSS, Mean, GARP-1 positive [1] | Delta PANSS, Mean, GARP-2 negative [1] | Delta PANSS, Mean, GARP-3 negative [1] | Delta PANSS, Mean, GARP-3 positive [1] | Delta PANSS, Mean, GARP-4 negative [1] | Delta PANSS, Mean, GARP-4 positive [1] | worse response of GARP-2 positive than GARP-2 negative patients ([1]; difference in delta PANSS, GARP-2 positive vs negative) | risk for weight gain, classification [2] | Relative efficacy (positive), GARP-1 [1] | Relative efficacy (positive), GARP-2 [1] | Relative efficacy (positive), GARP-3 [1] | Relative efficacy (positive), GARP-4 [1] | response in GARP-1 positive subjects, in words [1] | response in GARP-2 positive subjects, in words [1] | Effect Size vs. Placebo [3] | Effect Size vs. FGA [4] | Delta PANSS, Mean, GARP-2 positive [1] | response in GARP-3 positive subjects, in words [1] | response in GARP-1 positive subjects, in words ([1]; listed as ziprasidone)
1 | CN1CCN(C2=Nc3cc(Cl)ccc3Nc3ccccc32)CC1 [Clozapine, clozapine] | −15.32 | −14.0 | −24.33 | −13.6 | −31 | −13.4 | −26.3 | ~20 points | – | – | – | – | – | – | – | – | – | – | – | –
2 | Cc1cc2c(s1)Nc1ccccc1N=C2N1CCN(C)CC1 [Olanzapine, olanzapine] | −7.48 | – | −10.73 | −9.5 | −6.3 | −9.0 | −9.3 | – | high risk | Enhanced | Neutral | Neutral | Neutral | – | – | – | – | – | – | –
3 | OCCN1CCN(CCCN2c3ccccc3Sc3ccc(Cl)cc32)CC1 [Perphenazine, perphenazine] | −6.40 | 2.84 and 2.8 | 0.52 | −5.5 | 0.7 | −4.7 | −3.0 | – | – | Decreased | Enhanced | Neutral | Neutral | decreased response; also recorded: Neither quetiapine nor perphenazine demonstrated efficacy | enhanced response; also recorded: responded better; also recorded: superior efficacy | – | – | – | – | –
4 | OCCOCCN1CCN(C2=Nc3ccccc3Sc3ccccc32)CC1 [Quetiapine, quetiapine] | −0.53 | – | −2.86 | −0.1 | −4.3 | −0.7 | −1.6 | – | medium risk | Neutral | Decreased | Neutral | Neutral | Neither quetiapine nor perphenazine demonstrated efficacy | decreased response; also recorded: responded worse; also recorded: lack of efficacy | −0.42 | 0.01 | 1.51 and 1.5 | enhanced response; also recorded: responded significantly better | –
5 | Cc1nc2n(c(=O)c1CCN1CCC(c3noc4cc(F)ccc34)CC1)CCCC2 [Risperidone, risperidone] | −4.55 | – | −4.65 | −6.9 | 2.1 | −5.4 | −6.7 | – | medium risk | Enhanced | Neutral | Decreased | Neutral | enhanced response; also recorded: significant efficacy | superior efficacy | −0.59 | −0.25 | – | decreased response; also recorded: responded poorly | –
6 | O=C1Cc2cc(CCN3CCN(c4nsc5ccccc45)CC3)c(Cl)cc2N1 [Ziprasidone, ziprasidone] | −2.94 | 12.72 and 12.7 | 3.51 | −0.1 | −4.5 | 0.4 | −4.3 | – | low risk | Decreased | Enhanced | Neutral | Neutral | worsening of symptoms | enhanced response | −0.48 | −0.04 | −2.8 | – | decreased response; also recorded: responded particularly poorly; also recorded: NON-response
7 | O=C1CCc2ccc(OCCCCN3CCN(c4cccc(Cl)c4Cl)CC3)cc2N1 [aripiprazole] | – | – | – | – | – | – | – | – | low risk | – | – | – | – | NON-response | – | – | – | – | – | –
